The values below come from ChEMBL document CHEMBL5113441, “Exploration of 4-(1H-indol-3-yl)cyclohex-3-en-1-amine analogues as HDAC inhibitors: Design, synthesis, biological evaluation and modelling studies” (Bioorg Med Chem Lett, 2022).

Structures are written as SMILES. pIC50: −log10 of the molar value. Active and inactive are the calls of the source. The rule behind the calls is not given here.

Data set [1] has as its system HCT-116. Nature of the data set: Antiproliferative activity against human HCT-116 cells measured after 72 hrs. In kind it is functional, cell-based. As to conditions: HCT-116, 72 h.
The next data set deals with SW480. The experiment in a line: Antiproliferative activity against human SW480 cells measured after 72 hrs. In kind it is functional, cell-based. The conditions noted are these: SW480, 72 h.
The subject of the next data set is MCF7. Nature of the data set: Antiproliferative activity against human MCF7 cells measured after 72 hrs. In kind it is functional, cell-based. The conditions noted are these: MCF7, 72 h.
The next data set concerns A549. The experiment in a line: Antiproliferative activity against human A549 cells measured after 72 hrs. The data set is classed as functional, cell-based. As to conditions: A549, 72 h.
Data set [2] has as its target T1, Protein deacetylase HDAC6 (Homo sapiens, UniProt Q9UBN7).
T1 sequence (Q9UBN7 whole entry): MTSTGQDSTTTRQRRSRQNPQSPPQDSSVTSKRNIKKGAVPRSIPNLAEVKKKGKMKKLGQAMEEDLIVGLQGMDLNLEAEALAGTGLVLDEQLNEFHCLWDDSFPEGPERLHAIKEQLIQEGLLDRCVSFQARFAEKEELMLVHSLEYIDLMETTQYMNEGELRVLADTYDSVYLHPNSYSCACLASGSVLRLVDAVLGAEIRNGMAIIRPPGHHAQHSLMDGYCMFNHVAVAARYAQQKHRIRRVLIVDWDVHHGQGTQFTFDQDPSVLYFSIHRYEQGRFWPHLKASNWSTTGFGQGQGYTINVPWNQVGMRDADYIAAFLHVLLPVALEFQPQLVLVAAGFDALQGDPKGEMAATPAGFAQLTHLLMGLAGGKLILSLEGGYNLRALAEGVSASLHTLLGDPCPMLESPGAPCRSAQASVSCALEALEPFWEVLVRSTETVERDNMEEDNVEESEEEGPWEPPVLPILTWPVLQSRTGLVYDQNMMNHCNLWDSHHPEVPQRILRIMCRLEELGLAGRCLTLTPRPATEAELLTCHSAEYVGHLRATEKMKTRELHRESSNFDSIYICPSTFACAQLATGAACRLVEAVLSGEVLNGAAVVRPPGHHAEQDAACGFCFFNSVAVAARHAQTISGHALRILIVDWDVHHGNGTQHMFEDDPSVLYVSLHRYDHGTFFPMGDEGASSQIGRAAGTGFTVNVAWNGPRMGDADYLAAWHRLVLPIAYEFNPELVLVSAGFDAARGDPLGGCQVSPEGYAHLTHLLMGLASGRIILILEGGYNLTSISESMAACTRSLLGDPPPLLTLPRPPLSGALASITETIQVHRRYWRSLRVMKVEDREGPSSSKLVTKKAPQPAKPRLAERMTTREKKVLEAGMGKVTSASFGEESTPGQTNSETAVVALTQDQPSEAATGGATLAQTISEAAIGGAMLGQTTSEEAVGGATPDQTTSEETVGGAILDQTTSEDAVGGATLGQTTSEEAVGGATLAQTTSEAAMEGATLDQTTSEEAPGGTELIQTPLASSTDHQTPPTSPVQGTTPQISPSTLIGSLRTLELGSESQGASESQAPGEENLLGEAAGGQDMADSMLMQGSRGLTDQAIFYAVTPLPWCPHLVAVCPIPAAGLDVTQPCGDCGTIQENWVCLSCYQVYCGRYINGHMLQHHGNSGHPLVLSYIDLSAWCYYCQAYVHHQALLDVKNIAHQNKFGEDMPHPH
Nature of the data set: Inhibition of HDAC6 (unknown origin).

Data set [3] in a line: Cytotoxicity against human L02 cells measured after 72 hrs.
Another data set addresses T2, Histone deacetylase 8 (Homo sapiens, UniProt Q9BY41).
T2 sequence (Q9BY41 whole entry): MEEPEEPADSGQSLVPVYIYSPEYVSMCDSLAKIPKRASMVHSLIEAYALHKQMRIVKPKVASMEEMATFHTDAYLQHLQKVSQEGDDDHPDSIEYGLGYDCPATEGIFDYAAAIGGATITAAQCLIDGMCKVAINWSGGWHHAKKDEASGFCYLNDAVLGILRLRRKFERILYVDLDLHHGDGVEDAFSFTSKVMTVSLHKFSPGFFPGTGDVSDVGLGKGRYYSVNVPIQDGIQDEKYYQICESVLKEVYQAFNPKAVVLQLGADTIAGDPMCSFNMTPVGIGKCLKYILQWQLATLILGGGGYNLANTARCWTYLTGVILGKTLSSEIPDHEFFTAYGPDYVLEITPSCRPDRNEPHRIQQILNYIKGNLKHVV
The experiment in a line: Inhibition of HDAC8 (unknown origin).

A further data set has as its target Histone deacetylase 2 (Homo sapiens, UniProt Q92769). Nature of the data set: Inhibition of HDAC2 (unknown origin).
The next data set deals with Histone deacetylase 3 (Homo sapiens, UniProt O15379). The experiment in a line: Inhibition of HDAC3 (unknown origin).
Histone deacetylase 3, sequence (O15379 whole entry): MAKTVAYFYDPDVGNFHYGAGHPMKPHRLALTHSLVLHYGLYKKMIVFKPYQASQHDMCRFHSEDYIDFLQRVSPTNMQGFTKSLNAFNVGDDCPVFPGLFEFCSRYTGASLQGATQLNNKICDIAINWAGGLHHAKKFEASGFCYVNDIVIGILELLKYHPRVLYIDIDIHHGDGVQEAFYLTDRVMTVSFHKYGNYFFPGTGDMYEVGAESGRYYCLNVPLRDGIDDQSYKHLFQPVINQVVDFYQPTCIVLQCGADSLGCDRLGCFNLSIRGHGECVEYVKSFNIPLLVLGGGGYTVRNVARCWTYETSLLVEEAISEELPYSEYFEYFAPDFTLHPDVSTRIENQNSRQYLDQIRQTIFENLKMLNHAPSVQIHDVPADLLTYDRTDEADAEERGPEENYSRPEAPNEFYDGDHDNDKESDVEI
Another data set addresses Histone deacetylase 1 (Homo sapiens, UniProt Q13547). The experiment in a line: Inhibition of HDAC1 (unknown origin).
For data set [4], the system named is HCT-116. The experiment in a line: Induction of apoptosis in human HCT-116 cells at 2000 nM measured after 48 hrs by Annexin-FITC/propidium iodide staining based flow cytometry. The data set is classed as functional, cell-based.

Histone deacetylase 1, sequence (Q13547 whole entry): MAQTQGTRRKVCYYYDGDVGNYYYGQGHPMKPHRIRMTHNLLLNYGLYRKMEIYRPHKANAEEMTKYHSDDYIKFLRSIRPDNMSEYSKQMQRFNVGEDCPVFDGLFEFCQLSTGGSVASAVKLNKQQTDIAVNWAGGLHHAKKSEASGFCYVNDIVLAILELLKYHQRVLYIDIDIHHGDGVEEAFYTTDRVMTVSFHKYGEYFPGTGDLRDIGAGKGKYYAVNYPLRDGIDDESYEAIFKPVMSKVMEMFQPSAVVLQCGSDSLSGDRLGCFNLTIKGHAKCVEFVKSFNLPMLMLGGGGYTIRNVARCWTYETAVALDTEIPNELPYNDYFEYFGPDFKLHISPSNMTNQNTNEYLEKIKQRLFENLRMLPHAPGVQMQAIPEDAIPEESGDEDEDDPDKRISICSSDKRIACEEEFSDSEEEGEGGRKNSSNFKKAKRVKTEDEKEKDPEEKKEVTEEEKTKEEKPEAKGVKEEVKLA
Histone deacetylase 2, sequence (Q92769 whole entry): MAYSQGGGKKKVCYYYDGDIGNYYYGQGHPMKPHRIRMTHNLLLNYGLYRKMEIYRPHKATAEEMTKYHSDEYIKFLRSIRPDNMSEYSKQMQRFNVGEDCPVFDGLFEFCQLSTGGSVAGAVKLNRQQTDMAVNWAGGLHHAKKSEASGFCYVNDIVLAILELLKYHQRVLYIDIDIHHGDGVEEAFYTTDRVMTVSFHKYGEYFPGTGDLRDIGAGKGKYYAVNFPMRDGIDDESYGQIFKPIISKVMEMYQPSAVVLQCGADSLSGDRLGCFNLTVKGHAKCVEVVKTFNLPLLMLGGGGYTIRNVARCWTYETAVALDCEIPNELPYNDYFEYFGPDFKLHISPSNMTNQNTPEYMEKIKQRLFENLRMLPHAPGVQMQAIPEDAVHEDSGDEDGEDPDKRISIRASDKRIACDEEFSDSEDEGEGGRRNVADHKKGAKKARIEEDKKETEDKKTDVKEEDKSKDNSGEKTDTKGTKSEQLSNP

On to `Cc1ccc2[nH]cc(C3=CCN(Cc4ccc(OCC(=O)NO)cc4F)CC3)c2c1`, for which the pIC50 was 5.84 with HCT-116 [1] and 5.71 in the data set with SW480.

For the compound `O=C(COc1ccc(CNCCc2c[nH]c3ccccc23)cc1F)NO`, the pIC50 is 6.79 in the data set with HCT-116 [1] and 6.81 in the data set with MCF7.

Turning to `Cc1[nH]c2ccccc2c1C1=CCN(C(=O)c2ccc(OCC(=O)NO)cc2)CC1`, the pIC50 with HCT-116 [1] and with SW480 was < 5.30 in each case.

With `O=C(COc1ccc(CN2CC=C(c3c[nH]c4ccc(F)cc34)CC2)cc1)NO`, the pIC50 in the data set with HCT-116 [1] was 6.02; in the data set on SW480, 5.95.

As for `Cc1[nH]c2ccccc2c1C1=CCC(NCc2ccc(OCC(=O)NO)cc2)CC1` (configuration not stated), the pIC50 was 6.74 with HCT-116 [1], 6.44 in the data set on SW480, 6.05 in the data set with MCF7 and 6.73 with A549.

On to `O=C(COc1ccc(CNCCc2c[nH]c3ccccc23)cc1Cl)NO`, for which the pIC50 in the data set on HCT-116 [1] was 5.71; with MCF7, 5.97.

For the compound `O=C(COc1ccc(CNCCc2c[nH]c3ccccc23)cc1)NO`, the pIC50 with HCT-116 [1] is 6.72; with MCF7, 6.66.

As to `COc1cc(OCC(=O)NO)ccc1CNCCn1cnc2ccccc21`, the negative logarithm of the IC50 (pIC50) in the data set on HCT-116 [1] and with MCF7 was < 5.00 each time.

For the compound `Cc1[nH]c2ccccc2c1C1=CCN(Cc2ccc(OCC(=O)NO)cc2)CC1`, the pIC50 in the data set on HCT-116 [1] was 6.52; in the data set on SW480, 6.16; with MCF7, 5.80; in the data set on A549, 6.21.

On to `O=C(COc1ccc(CNCCc2c[nH]c3ccccc23)c(F)c1)NO`, for which the pIC50 in [2] was 7.85; with HCT-116 [1], 7.34; in the data set on MCF7, 7.11; on Histone deacetylase 8 it was 7.05; on Histone deacetylase 2, 8.51; at Histone deacetylase 3, 8.20. On Histone deacetylase 1, this compound had a pIC50 of 8.68. In data set [3], this compound yielded an IC50 at 72 h of 1560 nM.

In the case of `O=C(COc1ccc(CNCCn2cnc3ccccc32)c(F)c1)NO`, the pIC50 in the data set with HCT-116 [1] was 6.39; in the data set on MCF7, 6.27.

`O=C(COc1ccc(CNC2CC=C(c3c[nH]c4ccccc34)CC2)c(F)c1)NO` (configuration not stated): the pIC50 was 6.36 with HCT-116 [1], 5.94 with SW480, 5.93 with MCF7 and 6.56 in the data set with A549.

As to `O=C(COc1ccc(CNC2CC=C(c3c[nH]c4cccc(F)c34)CC2)c(F)c1)NO` (configuration not stated), the pIC50 in the data set with HCT-116 [1] was 6.76; in the data set on SW480, 6.72; in the data set with MCF7 it was 6.04; in the data set on A549, 6.69.

Take `Cc1[nH]c2ccccc2c1C1=CCN(Cc2ccc(OCC(=O)NO)cc2F)CC1`: the pIC50 with HCT-116 [1] was 5.91; in the data set with SW480, 5.80.

Take `Cc1[nH]c2cccc(F)c2c1C1=CCC(NCc2ccc(OCC(=O)NO)cc2F)CC1` (configuration not stated): the figures for the pIC50 in the data set on HCT-116 [1], in the data set on MCF7 and in the data set with A549 were 6.60, 5.93 and 6.61, respectively.

Regarding `O=C(CCCCCCC(=O)Nc1ccccc1)NO` [VORINOSTAT], in the data set on SW480, the pIC50 is 5.67. The result with HCT-116 [4] was Active.

For `Cc1ccc2[nH]cc(C3=CCC(NCc4ccc(OCC(=O)NO)cc4F)CC3)c2c1` (configuration not stated), the values for the pIC50 in the data set on HCT-116 [1] and in the data set with SW480 were 6.35 and 5.56, respectively.

Take `Cc1[nH]c2ccccc2c1C1=CCC(NCc2ccc(OCC(=O)NO)cc2F)C(F)C1` (configuration not stated): the negative logarithm of the IC50 (pIC50) in the data set on HCT-116 [1] is 6.13; with SW480, 6.29; with MCF7, 5.64; in the data set on A549 it was 6.30.

Turning to `O=C(COc1ccc(CN2CC=C(c3c[nH]c4ccc(F)cc34)CC2)c(F)c1)NO`, the pIC50 with HCT-116 [1] was < 5.30; with SW480, 5.41.

As to `O=C(COc1ccc(C(=O)N2CC=C(c3c[nH]c4ccc(F)cc34)CC2)cc1)NO`, the negative logarithm of the IC50 (pIC50) in the data set with HCT-116 [1] and in the data set with SW480 was < 5.30 throughout.

As for `COc1cc(OCC(=O)NO)ccc1CNCCc1c[nH]c2ccccc12`, the pIC50 in the data set on HCT-116 [1] and in the data set on MCF7 was < 5.00 in each case.

With `O=C(COc1ccc(CN2CC=C(c3c[nH]c4cccc(F)c34)CC2)cc1)NO`, the figures for the negative logarithm of the IC50 (pIC50) in the data set with HCT-116 [1] and with SW480 were 6.01 and 5.64, respectively.

On to `Cc1ccc2[nH]cc(C3=CCN(Cc4ccc(OCC(=O)NO)cc4)CC3)c2c1`, for which the negative-log IC50 (pIC50) was 6.20 in the data set with HCT-116 [1] and 5.40 in the data set with SW480.

Take `O=C(COc1ccc(C(=O)NC2CC=C(c3c[nH]c4cccc(F)c34)CC2)cc1)NO` (configuration not stated): the pIC50 in the data set with HCT-116 [1] and in the data set with SW480 was < 5.30 each time.

For the compound `O=C(COc1ccc(C(=O)N2CC=C(c3c[nH]c4cccc(F)c34)CC2)cc1)NO`, the figures for the pIC50 in the data set with HCT-116 [1] and with SW480 were 5.85 and 5.83, respectively.

For `O=C(COc1ccc(CNC2CC=C(c3c[nH]c4ccc(F)cc34)CC2)c(F)c1)NO` (configuration not stated), the pIC50 in the data set with HCT-116 [1] was 6.58; with SW480, 6.75; in the data set on MCF7, 5.85; in the data set with A549, 6.52.

Take `O=C(COc1cccc(CNCCc2c[nH]c3ccccc23)c1)NO`: the pIC50 with HCT-116 [1] is 5.58; in the data set with MCF7 it was 5.63.

On to `O=C(COc1ccc(CN2CC=C(c3c[nH]c4cccc(F)c34)CC2)c(F)c1)NO`, for which the pIC50 is 5.91 in the data set on HCT-116 [1] and 5.25 with SW480.

On to `Cc1[nH]c2ccccc2c1C1=CCC(NC(=O)c2ccc(OCC(=O)NO)cc2)CC1` (configuration not stated), for which the pIC50 in the data set with HCT-116 [1] and in the data set on SW480 was < 5.30 throughout.
